Measurements from the NIST ThermoML archive (doi:10.1021/acs.jced.7b00347).

Test: mn = molality of the nth substance listed, in mol/kg
Conditions: for surface tension liquid-gas: Ring tensiometer; for electrical conductivity: 100 kPa, Liquid, Alternating current cell with electrodes

CCCCCCCCC[NH+](CCO)CC(C)O.[Cl-] (stereo not drawn) + O
Conditions | electrical conductivity [S/m] | surface tension liquid-gas [mN/m]
293.15 K, m1 = 1.77e-05 | 0.00044 | –
293.15 K, m1 = 1.774e-05 | – | 61.16
293.15 K, m1 = 3.548e-05 | – | 54.59
293.15 K, m1 = 3.66e-05 | 0.000507 | –
293.15 K, m1 = 5.55e-05 | 0.000574 | –
293.15 K, m1 = 7.43e-05 | 0.000641 | –
293.15 K, m1 = 8.87e-05 | – | 46.05
293.15 K, m1 = 9.32e-05 | 0.000709 | –
293.15 K, m1 = 0.0001121 | 0.000776 | –
293.15 K, m1 = 0.0001309 | 0.000843 | –
293.15 K, m1 = 0.0001498 | 0.00091 | –
293.15 K, m1 = 0.0001687 | 0.000977 | –
293.15 K, m1 = 0.0001774 | – | 39.04
293.15 K, m1 = 0.0001875 | 0.00104 | –
293.15 K, m1 = 0.0002064 | 0.00111 | –
293.15 K, m1 = 0.0002253 | 0.00118 | –
293.15 K, m1 = 0.0002441 | 0.00125 | –
293.15 K, m1 = 0.000263 | 0.00131 | –
293.15 K, m1 = 0.0002661 | – | 35.47
293.15 K, m1 = 0.0002819 | 0.00138 | –
293.15 K, m1 = 0.0003008 | 0.00145 | –
293.15 K, m1 = 0.0003196 | 0.00152 | –
293.15 K, m1 = 0.0003385 | 0.00158 | –
293.15 K, m1 = 0.0003548 | – | 33.14
293.15 K, m1 = 0.0003574 | 0.00165 | –
293.15 K, m1 = 0.0003762 | 0.00172 | –
293.15 K, m1 = 0.0003951 | 0.00178 | –
293.15 K, m1 = 0.000414 | 0.00185 | –
293.15 K, m1 = 0.0004257 | – | 31.39
293.15 K, m1 = 0.0004328 | 0.00192 | –
293.15 K, m1 = 0.0004555 | 0.00197 | –
293.15 K, m1 = 0.0004782 | 0.00202 | –
293.15 K, m1 = 0.0005009 | 0.00207 | –
293.15 K, m1 = 0.0005236 | 0.00212 | –
293.15 K, m1 = 0.0005464 | 0.00217 | –
293.15 K, m1 = 0.0005691 | 0.00222 | –
293.15 K, m1 = 0.0005918 | 0.00227 | –
293.15 K, m1 = 0.0006145 | 0.00232 | –
293.15 K, m1 = 0.0006372 | 0.00236 | –
293.15 K, m1 = 0.0006599 | 0.00242 | –
293.15 K, m1 = 0.0006826 | 0.00246 | –
293.15 K, m1 = 0.0007053 | 0.00251 | –
293.15 K, m1 = 0.000728 | 0.00256 | –
293.15 K, m1 = 0.0007507 | 0.00261 | –
293.15 K, m1 = 0.0007734 | 0.00266 | –
293.15 K, m1 = 0.0007961 | 0.00271 | –
293.15 K, m1 = 0.0008188 | 0.00276 | –
293.15 K, m1 = 0.0008415 | 0.00281 | –
293.15 K, m1 = 0.0008642 | 0.00286 | –
293.15 K, m1 = 0.0008869 | 0.00291 | –
293.15 K, m1 = 0.000887 | – | 30.48
293.15 K, m1 = 0.001774 | – | 29.73
293.15 K, m1 = 0.002661 | – | 29.56
293.15 K, m1 = 0.003547 | – | 29.48
298.15 K, m1 = 1.77e-05 | 0.00054 | –
298.15 K, m1 = 1.774e-05 | – | 56.05
298.15 K, m1 = 3.548e-05 | – | 49.71
298.15 K, m1 = 4.07e-05 | 0.000642 | –
298.15 K, m1 = 6.36e-05 | 0.000745 | –
298.15 K, m1 = 8.66e-05 | 0.000848 | –
298.15 K, m1 = 8.87e-05 | – | 41.62
298.15 K, m1 = 0.0001095 | 0.00095 | –
298.15 K, m1 = 0.0001324 | 0.00105 | –
298.15 K, m1 = 0.0001554 | 0.00115 | –
298.15 K, m1 = 0.0001774 | – | 35.73
298.15 K, m1 = 0.0001783 | 0.00126 | –
298.15 K, m1 = 0.0002013 | 0.00136 | –
298.15 K, m1 = 0.0002242 | 0.00146 | –
298.15 K, m1 = 0.0002472 | 0.00156 | –
298.15 K, m1 = 0.0002661 | – | 32.44
298.15 K, m1 = 0.0002701 | 0.00167 | –
298.15 K, m1 = 0.000293 | 0.00177 | –
298.15 K, m1 = 0.000316 | 0.00187 | –
298.15 K, m1 = 0.0003389 | 0.00198 | –
298.15 K, m1 = 0.0003619 | 0.00208 | 30.45
298.15 K, m1 = 0.0003881 | 0.00215 | –
298.15 K, m1 = 0.0004144 | 0.00222 | –
298.15 K, m1 = 0.0004406 | 0.00229 | –
298.15 K, m1 = 0.0004669 | 0.00237 | –
298.15 K, m1 = 0.0004931 | 0.00244 | –
298.15 K, m1 = 0.0005194 | 0.00251 | –
298.15 K, m1 = 0.0005456 | 0.00258 | –
298.15 K, m1 = 0.0005719 | 0.00265 | –
298.15 K, m1 = 0.0005981 | 0.00273 | –
298.15 K, m1 = 0.0006244 | 0.0028 | –
298.15 K, m1 = 0.0006507 | 0.00287 | –
298.15 K, m1 = 0.0006769 | 0.00294 | –
298.15 K, m1 = 0.0007032 | 0.00301 | –
298.15 K, m1 = 0.0007294 | 0.00309 | –
298.15 K, m1 = 0.0007557 | 0.00316 | –
298.15 K, m1 = 0.0007819 | 0.00323 | –
298.15 K, m1 = 0.0008082 | 0.0033 | –
298.15 K, m1 = 0.0008344 | 0.00337 | –
298.15 K, m1 = 0.000887 | – | 29.41
298.15 K, m1 = 0.001774 | – | 28.9
298.15 K, m1 = 0.002661 | – | 28.56
298.15 K, m1 = 0.003547 | – | 28.41
